Laboratory results reported in patent US10428082B2, “Triazole derivatives of melampomagnolide B and methods of use thereof” (BioVentures, LLC, priority 2016, dated 2019).

Experiments:
UACC-62 = assay: NCI 60 growth inhibition; format: cell-based, human; conditions: Homo sapiens; UACC-62, Melanoma, Table 2
Method: (§1) The above triazole derivatives of melampomagnolide B were evaluated for growth inhibitory properties against an NCI panel of 60 human cancer cell lines derived from nine human cancer cell types, grouped into disease sub-panels that represent leukemia, lung, colon, central nervous system (CNS), melanoma, renal, ovary, breast, and prostate cancer cells. Growth inhibitory (GI50) effects were measured as a function of the variation of optical density as a percentage of control.

SK-OV-3 = assay: NCI 60 growth inhibition; format: cell-based, human; conditions: Homo sapiens; SK-OV-3, Ovarian Cancer, Table 2
Method: as §1

NCI-H460 = assay: NCI 60 growth inhibition; format: cell-based, human; conditions: Homo sapiens; NCI-H460, Non-Small Cell Lung Cancer, Table 2
Method: as §1

IGROV1 = assay: NCI 60 growth inhibition; format: cell-based, human; conditions: Homo sapiens, IGROV-1; IGROV1, Ovarian Cancer, Table 2
Method: as §1

NCI/ADR-RES = assay: NCI 60 growth inhibition; format: cell-based, human; conditions: Homo sapiens, Ovarian Cancer, Table 2
Method: as §1

SF-539 = assay: NCI 60 growth inhibition; format: cell-based, human; conditions: Homo sapiens; SF-539, CNS Cancer, Table 2
Method: as §1

SW-620 = assay: NCI 60 growth inhibition; format: cell-based, human; conditions: Homo sapiens; SW-620, Colon Cancer, Table 2
Method: as §1

ACHN = assay: NCI 60 growth inhibition; format: cell-based, human; conditions: Homo sapiens, Renal Cancer, Table 2
Method: as §1

MDA-MB-468 = assay: NCI 60 growth inhibition; format: cell-based, human; conditions: Homo sapiens; MDA-MB-468, Breast Cancer, Table 2
Method: as §1

HCC-2998 = assay: NCI 60 growth inhibition; format: cell-based, human; conditions: Homo sapiens; HCC-2998, Colon Cancer, Table 2
Method: as §1

M14 = assay: NCI 60 growth inhibition; format: cell-based, human; conditions: Homo sapiens; M14, Melanoma, Table 2
Method: as §1

LOX IMVI = assay: NCI 60 growth inhibition; format: cell-based, human; conditions: Homo sapiens, Melanoma, Table 2
Method: as §1

MALME-3M = assay: NCI 60 growth inhibition; format: cell-based, human; conditions: Homo sapiens, Melanoma, Table 2
Method: as §1

786-0 = assay: NCI 60 growth inhibition; format: cell-based, human; conditions: Homo sapiens; 786-0, Renal Cancer, Table 2
Method: as §1

PC-3 = assay: NCI 60 growth inhibition; format: cell-based, human; conditions: Homo sapiens; PC-3, Prostate Cancer, Table 2
Method: as §1

NCI-H522 = assay: NCI 60 growth inhibition; format: cell-based, human; conditions: Homo sapiens; NCI-H522, Non-Small Cell Lung Cancer, Table 2
Method: as §1

MDA-MB-435 = assay: NCI 60 growth inhibition; format: cell-based, human; conditions: Homo sapiens; MDA-MB-435, Melanoma, Table 2
Method: as §1

MCF7 = assay: NCI 60 growth inhibition; format: cell-based, human; conditions: Homo sapiens; MCF7, Breast Cancer, Table 2
Method: as §1

SF-268 = assay: NCI 60 growth inhibition; format: cell-based, human; conditions: Homo sapiens; SF-268, CNS Cancer, Table 2
Method: as §1

U251 = assay: NCI 60 growth inhibition; format: cell-based, human; conditions: Homo sapiens, U-251; U251, CNS Cancer, Table 2
Method: as §1

HS 578T = assay: NCI 60 growth inhibition; format: cell-based, human; conditions: Homo sapiens, Breast Cancer, Table 2
Method: as §1

DU-145 = assay: NCI 60 growth inhibition; format: cell-based, human; conditions: Homo sapiens; DU-145, Prostate Cancer, Table 2
Method: as §1

RPMI-8226 = assay: NCI 60 growth inhibition; format: cell-based, human; conditions: Homo sapiens; RPMI-8226, Leukemia, Table 2
Method: as §1

MOLT-4 = assay: NCI 60 growth inhibition; format: cell-based, human; conditions: Homo sapiens; MOLT-4, Leukemia, Table 2
Method: as §1

NCI-H226 = assay: NCI 60 growth inhibition; format: cell-based, human; conditions: Homo sapiens; NCI-H226, Non-Small Cell Lung Cancer, Table 2
Method: as §1

SNB-19 = assay: NCI 60 growth inhibition; format: cell-based, human; conditions: Homo sapiens; SNB-19, CNS Cancer, Table 2
Method: as §1

SK-MEL-5 = assay: NCI 60 growth inhibition; format: cell-based, human; conditions: Homo sapiens; SK-MEL-5, Melanoma, Table 2
Method: as §1

HCT-15 = assay: NCI 60 growth inhibition; format: cell-based, human; conditions: Homo sapiens; HCT-15, Colon Cancer, Table 2
Method: as §1

HL-60(TB) = assay: NCI 60 growth inhibition; format: cell-based, human; conditions: Homo sapiens; HL-60(TB), Leukemia, Table 2
Method: as §1

K-562 = assay: NCI 60 growth inhibition; format: cell-based, human; conditions: Homo sapiens, K562; K-562, Leukemia, Table 2
Method: as §1

HCT-116 = assay: NCI 60 growth inhibition; format: cell-based, human; conditions: Homo sapiens; HCT-116, Colon Cancer, Table 2
Method: as §1

SR = assay: NCI 60 growth inhibition; format: cell-based, human; conditions: Homo sapiens, Leukemia, Table 2
Method: as §1

SK-MEL-2 = assay: NCI 60 growth inhibition; format: cell-based, human; conditions: Homo sapiens; SK-MEL-2, Melanoma, Table 2
Method: as §1

MDA-MB-231/ATCC = assay: NCI 60 growth inhibition; format: cell-based, human; conditions: Homo sapiens, Breast Cancer, Table 2
Method: as §1

SN12C = assay: NCI 60 growth inhibition; format: cell-based, human; conditions: Homo sapiens, Renal Cancer, Table 2
Method: as §1

CAKI-1 = assay: NCI 60 growth inhibition; format: cell-based, human; conditions: Homo sapiens; CAKI-1, Renal Cancer, Table 2
Method: as §1

UO-31 = assay: NCI 60 growth inhibition; format: cell-based, human; conditions: Homo sapiens; UO-31, Renal Cancer, Table 2
Method: as §1

M9 ENL1 cell line = assay: Anti-leukemic activity, Annexin V/7-AAD flow cytometry; format: cell-based
Method: The newly synthesized triazole derivatives of melampomagnolide B were screened for anti-leukemic activity against M9 ENL1 and primary AML cell lines; the latter were obtained with informed consent from human patients. Evaluations were performed after 24 h of drug exposure using flow cytometric analysis by labeling with Annexin V and 7-aminoactinomycin D (7-AAD) to delineate apoptotic cell populations. In all experiments PTL was included as a reference control.

SMILES | GI50 (UACC-62) | GI50 (SK-OV-3) | GI50 (NCI-H460) | GI50 (IGROV1) | GI50 (NCI/ADR-RES) | GI50 (SF-539) | GI50 (SW-620) | GI50 (ACHN) | GI50 (MDA-MB-468) | GI50 (HCC-2998) | GI50 (M14) | GI50 (LOX IMVI) | GI50 (MALME-3M) | GI50 (786-0) | GI50 (PC-3) | GI50 (NCI-H522) | GI50 (MDA-MB-435) | GI50 (MCF7) | GI50 (SF-268) | GI50 (U251) | further results
C=C1C(=O)O[C@H]2[C@H]1CC/C(Cn1cc(-c3ccc(F)cc3)nn1)=C\CC[C@@]1(C)O[C@@H]21 [JVM 4-26] | 1260 nM | 9780 nM | 3660 nM | 1170 nM | 3050 nM | 270 nM | 420 nM | 180 nM | 420 nM | 1740 nM | 940 nM | 900 nM | 1400 nM | 1060 nM | 2000 nM | 250 nM | 1000 nM | 350 nM | 1690 nM | 2020 nM | GI50 (HS 578T): 3680 nM; GI50 (DU-145): 690 nM; GI50 (RPMI-8226): 1410 nM; GI50 (MOLT-4): 380 nM; GI50 (NCI-H226): 2480 nM; GI50 (SNB-19): 3390 nM; GI50 (SK-MEL-5): 1740 nM; GI50 (HCT-15): 280 nM; GI50 (HL-60(TB)): 720 nM; GI50 (K-562): 940 nM; GI50 (HCT-116): 290 nM; GI50 (SR): 250 nM; GI50 (SK-MEL-2): 1830 nM; GI50 (MDA-MB-231/ATCC): 1220 nM; GI50 (SN12C): 1640 nM; GI50 (CAKI-1): 1030 nM; GI50 (UO-31): 1220 nM
C=C1C(=O)O[C@H]2[C@H]1CC/C(Cn1cc(-c3cc(C(F)(F)F)cc(C(F)(F)F)c3)nn1)=C\CC[C@@]1(C)O[C@@H]21 [JVM 4-29, (1aR,7aS,10aS,10bS,E)-5-((4-(3,5-bis(Trifluoromethyl)phenyl)-1H-1,2,3-triazol-1-yl)methyl)-1a-methyl-8-methylene-2,3,6,7,7a,8,10a,10b-octahydrooxireno[2′,3′:9,10]cyclodeca[1,2-b]furan-9(1aH)-one] | 340 nM | 1860 nM | 1220 nM | 840 nM | 1050 nM | 170 nM | 190 nM | 160 nM | 420 nM | 1170 nM | 350 nM | 150 nM | 520 nM | 160 nM | 830 nM | 120 nM | 740 nM | 190 nM | 1080 nM | 1440 nM | GI50 (HS 578T): 1030 nM; GI50 (DU-145): 720 nM; GI50 (RPMI-8226): 220 nM; GI50 (MOLT-4): 190 nM; GI50 (NCI-H226): 1650 nM; GI50 (SNB-19): 1710 nM; GI50 (SK-MEL-5): 1470 nM; GI50 (HCT-15): 190 nM; GI50 (HL-60(TB)): 190 nM; GI50 (K-562): 230 nM; GI50 (HCT-116): 150 nM; GI50 (SR): 100 nM; GI50 (SK-MEL-2): 340 nM; GI50 (MDA-MB-231/ATCC): 330 nM; GI50 (SN12C): 700 nM; GI50 (UO-31): 380 nM; EC50 (M9 ENL1 cell line; M9-ENL1, 24 h, 24 h of drug exposure, read-out: M9ENL1 (EC50)): 600 nM; cytotoxicity compared with parthenolide (M9 ENL1 cell line; M9 ENL1 cell assay): more cytotoxic than parthenolide; fold more potent than parthenolide (PTL) (M9 ENL1 cell line; M9 ENL1 cells): 8.6 fold
